{
  "source": "patent US20020028788A1",
  "about": "“Vaginal active agent delivery procedures and formulations thereof” (priority 1998, published 2002)",
  "key": {"cattle [1]": {"system": "cattle", "details": "past attempts; vaginal administration by capsule; doses typically 10 times higher than intra-muscular; cited from earlier work"}, "[2]": {"assay": "Plasma oestradiol concentration and pharmacokinetics following vaginal or intramuscular administration", "assay_type": "in vivo", "details": "cattle, oestradiol benzoate", "method": "Error bars are standard error means (n=3).\nFIG. 2 is a plasma oestradiol concentrations following vaginal administration of 10 mg oestradiol benzoate (open square), 10 mg oestradiol benzoate with 1:1 molar ratio β-cyclodextrin (open diamond), 10 mg oestradiol benzoate with 1:1 molar ratio hydroxypropyl β-cyclodextrin (open circle) or 10 mg oestradiol benzoate with 1:1 molar ratio γ-cyclodextrin (open triangle). Error bars are standard error means (n=4).\nError bars are standard error means (n=4)."}, "cattle [3]": {"system": "cattle", "assay": "Follicular dynamics and oestrus following vaginal oestradiol 17β or intramuscular oestradiol benzoate", "assay_type": "in vivo", "details": "for Follicle wave turnover (i.e. DF3) / No follicle wave turnover (i.e. no DF3): number of animals"}, "[4]": {"details": "2 mg oestradiol benzoate, intramuscular administration"}, "[5]": {"details": "2 mg oestradiol benzoate, intramuscular administration, group n = 7"}, "[6]": {"details": "2.5 mg oestradiol 17β, vaginal administration"}, "[7]": {"details": "5.0 mg oestradiol 17β, vaginal administration"}, "[8]": {"details": "2.5 mg oestradiol 17β, vaginal administration, group n = 8"}, "[9]": {"details": "5.0 mg oestradiol 17β, vaginal administration, group n = 8"}},
  "note": "Marks after values point to notes of the source that are not given here.",
  "data": [
    {"smiles": "C[C@]12CC[C@@H]3c4ccc(OC(=O)c5ccccc5)cc4CC[C@H]3[C@@H]1CC[C@@H]2O", "note": "[oestradiol benzoate]", "values": [
      {"measurement": "oestrus expression and fertility", "setting": "cattle [1]", "value": "poor oestrus expression and poor fertility"},
      {"measurement": "absorption following vaginal administration", "setting": "[2]", "value": "poor and variable absorption"},
      {"measurement": "Age of ovulatory DF3", "setting": "cattle [3]; [4]", "value": "6.0 ± 0.5^ d"},
      {"measurement": "Day DF2 emerged", "setting": "cattle [3]; [4]", "value": "9.6 ± 0.6^a"},
      {"measurement": "Day DF3 emerged", "setting": "cattle [3]; [4]", "value": "17.0 ± 0.4 ^"},
      {"measurement": "Diameter DF2 on Day 13", "setting": "cattle [3]; [4]", "value": "9.6 ± 1.0^a mm"},
      {"measurement": "Diameter of ovulatory DF3", "setting": "cattle [3]; [4]", "value": "14.2 ± 0.4 ^ mm"},
      {"measurement": "Growth of DF2 from Day 13-17", "setting": "cattle [3]; [4]", "value": "−0.6 ± 0.7^b mm"},
      {"measurement": "Day of oestrus", "setting": "cattle [3]; 2 mg oestradiol benzoate, intramuscular administration, n = 7", "value": "22.6 ± 0.2 (n = 7)"},
      {"measurement": "Follicle wave turnover (i.e. DF3)", "setting": "cattle [3]; [5]", "value": 6},
      {"measurement": "No follicle wave turnover (i.e. no DF3)", "setting": "cattle [3]; [5]", "value": 1}
    ]},
    {"smiles": "C[C@]12CC[C@@H]3c4ccc(O)cc4CC[C@H]3[C@@H]1CC[C@@H]2O", "note": "[oestradiol 17β]", "values": [
      {"measurement": "Age of ovulatory DF2", "setting": "cattle [3]; [6]", "value": "12.0 ± 0.6 ^ d"},
      {"measurement": "Age of ovulatory DF3", "setting": "cattle [3]; [6]", "value": 6, "unit": "days"},
      {"measurement": "Day DF2 emerged", "setting": "cattle [3]; [6]", "value": "9.9 ± 0.4^a"},
      {"measurement": "Diameter DF2 on Day 13", "setting": "cattle [3]; [6]", "value": "9.9 ± 0.5^a mm"},
      {"measurement": "Diameter of ovulatory DF2", "setting": "cattle [3]; [6]", "value": "15.6 ± 0.7 ^ mm"},
      {"measurement": "Diameter of ovulatory DF3", "setting": "cattle [3]; [6]", "value": 12, "unit": "mm"},
      {"measurement": "Growth of DF2 from Day 13-17", "setting": "cattle [3]; [6]", "value": "2.4 ± 0.6^a mm"},
      {"measurement": "Day of oestrus", "setting": "cattle [3]; 2.5 mg oestradiol 17β, vaginal administration, n = 7", "value": "22.0 ± 0.0 (n = 7)"},
      {"measurement": "Age of ovulatory DF2", "setting": "cattle [3]; [7]", "value": "11.5 ± 0.5 ^ d"},
      {"measurement": "Age of ovulatory DF3", "setting": "cattle [3]; [7]", "value": "7.0 ± 0.5^ d"},
      {"measurement": "Day DF2 emerged", "setting": "cattle [3]; [7]", "value": "10.0 ± 0.6^a"},
      {"measurement": "Day DF3 emerged", "setting": "cattle [3]; [7]", "value": "15.7 ± 0.6 ^"},
      {"measurement": "Diameter DF2 on Day 13", "setting": "cattle [3]; [7]", "value": "9.3 ± 0.8^a mm"},
      {"measurement": "Diameter of ovulatory DF2", "setting": "cattle [3]; [7]", "value": "17.0 ± 1.0 ^ mm"},
      {"measurement": "Diameter of ovulatory DF3", "setting": "cattle [3]; [7]", "value": "13.7 ± 0.7 ^ mm"},
      {"measurement": "Growth of DF2 from Day 13-17", "setting": "cattle [3]; [7]", "value": "0.9 ± 0.8^ab mm"},
      {"measurement": "Day of oestrus", "setting": "cattle [3]; 5.0 mg oestradiol 17β, vaginal administration, n = 8", "value": "22.0 ± 0.0 (n = 8)"},
      {"measurement": "Follicle wave turnover (i.e. DF3)", "setting": "cattle [3]; [8]", "value": 3},
      {"measurement": "No follicle wave turnover (i.e. no DF3)", "setting": "cattle [3]; [8]", "value": 5},
      {"measurement": "Follicle wave turnover (i.e. DF3)", "setting": "cattle [3]; [9]", "value": 6},
      {"measurement": "No follicle wave turnover (i.e. no DF3)", "setting": "cattle [3]; [9]", "value": 2},
      {"measurement": "influence on follicular dynamics", "setting": "cattle [3]; vaginal administration, 5 mg oestradiol 17β and γ-cyclodextrin in molar ratio 0.5:1, compared with i.m. 2 mg oestradiol benzoate", "value": "influences follicular dynamics in a similar manner"}
    ]}
  ]
}
